Source: patent US4980377A, “1-(aminophenyl)-2-aminopropanone derivatives” (Laboratoire L. Lafon, priority 1984, dated 1990)
Entries after “also recorded” stand apart in the source; their conditions may differ. Structures can show the parent of a compound that is named as a salt.

Tests used:
mice [1] = assay: Overall behavior and reactivities in mice; format: in vivo, mouse; details: dose not stated
Method: (§1) In the neuropsychopharmacological study which follows, a solution of CRL 41 153 in distilled water (pH 1.5) was administered intraperitoneally in a volume of 20 ml/kg to male mice and 5 ml/kg to male rats.
(§2) Groups of three animals are observed before and then 0.25 hour, 0.50 hour, 1 hour, 2 hours, 3 hours and 24 hours after the administration of CRL 41 153.

rats [2] = assay: Overall behavior and reactivities in rats; format: in vivo, rat; details: dose not stated
Method: as §1, §2

mice [3] = assay: Interaction with apomorphine in mice; format: in vivo, mouse; details: i.p.
Method: Groups of 6 mice receive CRL 41 153 0.5 hour before the subcutaneous injection of 1 or 16 mg/kg of apomorphine.

rats [4] = assay: Interaction with apomorphine in rats; format: in vivo, rat; details: i.p.
Method: CRL 41 153 is administered to groups of 6 rats 0.5 hour before the subcutaneous injection of 0.5 mg/kg of apomorphine.

rats [5] = assay: Interaction with amphetamine; format: in vivo, rat; details: i.p.
Method: Amphetamine (2 mg/kg) is injected intraperitoneally into groups of 6 rats 30 minutes after the administration of CRL 41 153. […] 4 mg/kg and 16 mg/kg, CRL 41 153 potentiates the intensity and duration of the stereotypies induced by amphetamine.

mice [6] = assay: Interaction with reserpine; format: in vivo, mouse; details: i.p.
Method: Four hours after the intraperitoneal injection of 2.5 mg/kg of reserpine, groups of 6 mice receive CRL 41 153.

mice [7] = assay: Interaction with oxotremorine; format: in vivo, mouse; details: i.p.
Method: CRL 41 153 is administered to groups of 6 mice 0.5 hour before the intraperitoneal injection of 0.5 mg/kg of oxotremorine.

mice [8] = assay: Spontaneous motility; format: in vivo, mouse; details: i.p.
Method: 0.5 hour after they have received CRL 41 153, the mice (6 per dose, 12 control animals) are placed in an actimeter, where their motility is recorded for 30 minutes.

mice [9] = assay: Motility reduced by habituation to the enclosure; format: in vivo, mouse; details: i.p.
Method: After they have stayed In the actimeters for 18 hours, (he mice (6 per dose, 12 control animals) receive CRL 41 153. They are immediately returned to their respective enclosures and, half an hour later, their motility is recorded for 30 minutes.

mice [10] = assay: Motility reduced by hypoxic aggression; format: in vivo, mouse; details: i.p.
Method: Half an hour after they have received CRL 41 153, the mice (10 per dose, 20 control animals) are subjected to acute hypobaric anoxia [pressure reduction of 600 mm Hg (i.e. about 8×10^4 Pa) in 90 seconds; release of vacuum in 45 seconds] and are then placed in an actimeter, where their motility is recorded for 10 minutes.

mice [11] = assay: Interaction with barbital; format: in vivo, mouse; details: i.p., barbital 220 mg/kg
Method: Half an hour after the administration of CRL 41 153, groups of 10 mice receive an intraperitoneal injection of barbital (220 mg/kg).

mice [12] = assay: Behavioral despair; format: in vivo, mouse; details: forcibly immersed mice, i.p.
Source text: Half an hour after they have received CRL 41 153, groups of 6 mice are placed in a beaker filled with water to a height of 6 cm. The total period of immobility between the 2nd and 6th minutes following immersion is noted.

dogs = assay: Cardiovascular study in anesthetized dogs; format: in vivo, dog
In short: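 Measurements: blood pressure, heart rate, femoral and vertebral arterial flow, rectal temperature, skin colour, and for CRL 41 194 bile colour via bile-duct catheter. Doses rose stepwise 0.1–10 mg/kg intraduodenally in solution under nembutal anaesthesia; two dogs got CRL 41 194, four CRL 41 221.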

[13] = tested on: cellular and humoral immunity; assay: Test for cells forming lysis areas; details: in vivo
[14] = tested on: cellular and humoral immunity; assay: Delayed hypersensitivity to the red blood corpuscles of sheep; format: in vivo
man = assay: Clinical study: treatment of depressions; format: in vivo, human
[15] = tested on: gravid White New Zealand female rabbits; assay: Teratogenicity in gravid White New Zealand rabbits; format: in vivo, rabbit; details: day 5 to day 18 of gestation; for Affected foetuses, %: normal limit 1.5%
In short: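 Fetuses harvested by cesarean on gestation day 29 were scored for number and for any malformation (limb blockade, anury, tail or skull defects, exencephaly).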

[16] = pH of solutions in distilled water; format: physicochemical
Method: The neuropsychopharmacological study was undertaken according to the procedures described above for CRL 41 153, CRL 41 213 being adminstered intraperitoneally, in solution in distilled water, in a volume of 20 ml/kg to male mice and a volume of 5 ml/kg to male rats, and the pH of the injected solution varying with the concentration of CRL 41 213 according to the data given in Table II below.

CNS = assay: Neuropsychopharmacological profile as a whole; format: in vivo, mice and rats
Method: as §1

immunity = assay: Immunological study (overall); details: in vivo; dihydrochloride
[17] = anesthetized dogs, intraduodenal

CC(C(=O)c1ccc(N)cc1)N1CCOCC1 (stereo not shown) [CRL 41 237, 1-(4-aminophenyl)-2-morpholinopropanone dihydrochloride]
Overall behavior: observed effects (summary) (mice [1]): excitation with hyperreactivity in mice and rats | Stereotype movements (summary) (mice [1]): the presence of stereotype movements in mice and rats | Overall behavior: observed effects (summary) (rats [2]): excitation with hyperreactivity in mice and rats | Stereotype movements (summary) (rats [2]): the presence of stereotype movements in mice and rats | Effect on hypothermia induced by apomorphine (mice [3]): antagonism of the hypothermia | Effect on stereotypies induced by apomorphine (rats [4]): potentiation of the stereotypies | Effect on stereotypies induced by amphetamine (rats [5]): potentiation of the stereotypies | Effect on hypothermia induced by reserpine (mice [6]): antagonism of the hypothermia | Effect on ptosis induced by reserpine (mice [6]): antagonism of the ptosis induced by reserpine | Effect on hypothermic action of oxotremorine (mice [7]): antagonism of the hypothermia | Effect on trembling induced by oxotremorine (mice [7]): antagonism of the trembling induced by oxotremorine | Spontaneous motor activity (mice [8]): an increase in the spontaneous motor activity of mice | Motor activity of mice accustomed to their enclosure (mice [9]): resumption in the motor activity of mice accustomed to their enclosure | Motor recovery of mice after hypobaric hypoxia (mice [10]): improvement in the motor recovery | Duration of the sleep induced by barbital (mice [11]): a reduction in the duration of the sleep induced by barbital | Period of immobility due to despair (mice [12]): a reduction in the period of immobility | Femoral flow (dogs; anesthetized dog, intravenous, additional 10 mg/kg): caused an increase in the femoral flow | Effect on hypertension induced by norepinephrine (dogs; anesthetized dogs): distinctly increases the hypertension induced by norepinephrine | Effects of isoprenaline (not further specified) (dogs; anesthetized dogs): does not modify the effects of isoprenaline | Rectal temperature (dogs; anesthetized dogs): The rectal temperature rises gradually | Skin temperature (dogs; anesthetized dogs): a large increase in the skin temperature | Blood pressure (dogs; [17]): No action was observed on the blood pressure | Femoral flow (dogs; [17]): No action was observed on the blood pressure, the femoral flow and the vertebral flow | Heart rate (dogs; [17]): slight tachycardiac effect at 20 mg/kg | Vertebral flow (dogs; [17]): No action was observed on the blood pressure, the femoral flow and the vertebral flow | Activity in the test for cells forming lysis areas [13]: strong activity according to the abovementioned test for cells forming lysis areas, at a dose of 100 mg/kg, administered orally | Activity on the delayed hypersensitivity reaction [14]: weaker activity on the abovementioned delayed hypersensitivity reaction to red blood corpuscles of sheep, at doses of 0.1 mg/kg to 10 mg/kg, administered orally | Result in the treatment of depressions (man): good results were obtained by oral administration in the treatment of depressions at a daily dose of -0 mg | Affected foetuses, number ([15]; 5 mg/kg daily): 0 | Total foetuses (live) ([15]; 5 mg/kg daily): 91 | Affected foetuses, % ([15]; 5 mg/kg daily): 0% | Affected foetuses, number ([15]; 10 mg/kg daily): 1 | Total foetuses (live) ([15]; 10 mg/kg daily): 96 | Affected foetuses, % ([15]; 10 mg/kg daily): 1.04% | Affected foetuses, number ([15]; 50 mg/kg daily): 1 | Total foetuses (live) ([15]; 50 mg/kg daily): 88 | Affected foetuses, % ([15]; 50 mg/kg daily): 1.13% | pH ([16]; 0.1 g/liter in distilled water): 5.0 | pH ([16]; 0.2 g/liter in distilled water): 4.5 | pH ([16]; 0.4 g/liter in distilled water): 4.0 | pH ([16]; 0.8 g/liter in distilled water): 3.5 | pH ([16]; 1.6 g/liter in distilled water): 3.0 | pH ([16]; 3.2 g/liter in distilled water): 2.5 | pH ([16]; 6.4 g/liter in distilled water): 2.0 | pH ([16]; 25 g/liter in distilled water): 1.5 | pH ([16]; 50 g/liter in distilled water): 1.0 | pH ([16]; ≤0.05 g/liter in distilled water): 5.5 | Stimulant effects (overall) (CNS; conclusion of the tests): stimulant effects | α-adrenergic stimulant effects (overall) (CNS; conclusion of the tests): effects showing peripheral α-adrenergic stimulation | Antidepressant effects (overall) (CNS; conclusion of the tests, dihydrochloride): good antidepressant; also recorded: antidepressant effects | Peripheral α-adrenergic signs (mydriasis, salivation, lacrimation, exophthalmos) (CNS; species and dose not stated, dihydrochloride): mydriasis | Immunological effect (overall) (immunity): immunostimulant or immunomodulating effects; also recorded: immunostimulant effects
